From patent US20240415819A1, “MACROCYCLIC COMPOUNDS AS PROTEASOME SUBUNIT BETA TYPE-5 INHIBITORS” (Lead Discovery Center GmbH, priority 2021, published 2024) come the findings set out here.

SMILES strings stand for the structures.

Assay [1] has as its target T1, β5 subunit of the human constitutive proteasome (CPS) (Homo sapiens, UniProt P28074).
T1 construct: purchased Boston Biochem E-360
The assay can be described thus: β5 inhibition assay, human constitutive proteasome (Suc-LLVY-AMC). To be noted: IC50 class, Suc-LLVY-AMC substrate. In kind it is biochemical. The protocol: The enzymatic activity of the β5 subunit of the human constitutive proteasome (CPS) is analyzed. In another assay, which differs from the assay of the human constitutive proteasome only in using the human immunoproteasome (IPS) the enzymatic activity of the β5 subunit of the human immunoproteasome (IPS) is analyzed. […] Inhibition is indicated as IC50 [nM] (“-”=not measured).

The target in assay [2] is T2, β5 subunit of the human immunoproteasome (IPS) (Homo sapiens, UniProt P28062).
T2 construct: purchased Boston Biochem E-370
The assay can be described thus: β5 inhibition assay, human immunoproteasome (Suc-LLVY-AMC). In kind it is biochemical. The note with it: IC50 class, Suc-LLVY-AMC substrate. The method in brief:
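Human immunoproteasome (1 nM final) was preincubated 10 min at RT with compound in 100 mM HEPES pH 7.5, 50 mM NaCl, 0.02% SDS, 1 mM DTT. Suc-LLVY-AMC (22.6 μM final) was then added for 4 h at RT in the dark. After stopping with 1 μM bortezomib, AMC fluorescence was read (ex 355/em 460 nm).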

The test system of assay [3] is HT-29 cells. Briefly: CellTiter-Glo luminescent cell viability assay with HT-29 cells (72h incubation). In kind it is cell-based, human. To be noted: Homo sapiens, HT-29, HT29 cells, read-out: CTG HT29. The essentials: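 400 cells per well in DMEM/10% FCS were dosed after 24 h and kept 72 h at 37 °C, 5% CO2. ATP-based luminescence (CellTiter-Glo) normalized to DMSO and 10 μM staurosporine controls; IC50 by dose-response fit.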

For assay [4], the system named is A549 (human lung carcinoma cell line). Briefly: Glo assay of A549 cells (Table 3; ProteasomeGlo plating scheme). It counts as cell-based. The note with it: Homo sapiens; A549 cells; read-out: PGLo A549. From the text:
Inhibition is indicated as IC50 [nM] (“-”=not measured). […] • Chymotrypsin-Like Cell-Based Proteasome-GloTM Assay (Promega; […]) • Cell culture 384-well plates (Greiner BioOne; 781080) • Dispensing cassette, MultiDrop Standard tube dispensing cassette (Thermo Scientific; 24072670) • DPBS (Pan BioTech; P04-36500) • Cell culture 384-well plates (Greiner BioOne; 781080) • CPD source plate: diamond-shape plate (Labcyte; LP-0200) • Intermediate plate (Labcyte; P-05525) [table] • a. Remove the plates with cells from the incubator. • b. Take all the plates including the compound plate, intermediate plate and Staurosporine plate to the ECHO. • c. Click on “Open” in the ECHO software and select the protocol “QLI5_25ul_30 uM-Grenier”. • d. Follow the on-screen prompts and instructions once you click “Start” to insert the compound plate, intermediate plate and destination plates. • e. Change the final number of destination plates on the program. • f. Follow the on-screen prompts and instructions once you click “Start” to load the Staurosporine and destination plates. • g. Once all the compounds, DMSO and Staurosporine have been transferred, place the destination plates in a wet tissue box. • h. Place the destination plates back into the incubator and incubate at 37° C., 5% CO2 for 105 minutes. • i. Re-seal all the compound+Stauro diamond and intermediate plates and store in the dark. Chymotrypsin like ProteasomeGlo Assay • 1. Thaw the components of the ProteasomeGlo assay at room temperature including the ProteasomeGlo Buffer, the lyophilized Luciferin Detection Reagent and the Suc-LLVY-Glo Substrate. • 2. Reconstitute the Luciferin Detection Reagent in the amber coloured bottle by adding 50 ml of the ProteasomeGlo Buffer. • 3. Vortex the Suc-LLVY-Glo Substrate briefly to reconstitute the Substrate well. • 4. Spin down the Substrate and add 250 μl of the Substrate to the reconstituted Luciferin Detection Reagent from step 2. • 5. Briefly vortex the amber bottle with the mix to prepare a homogenous solution. • 6. Place the mix prepared in step 5 to sit at room temperature for 60 minutes. • 7. After 60 minutes, pipette 25 μl of the mix from step 5 into all wells with the cells. • 8. Shake the plates for 2-5 minutes to ensure the complete mixing of the ProteasomeGlo reagent with the cells. • 9. Leave the plates in the dark for 10-15 minutes. • 10. Measure the luminescence read-out using the Viktor and the protocol “Luminescence_384Well_0.2 sec”. (Note: The Protoeasome-GloTM Reagent (combined Proteasome-GloTM Substrate, Proteasome-GloTM Buffer and Luciferin Detection Reagent) can be stored at 4° C. or -20° C. for 1 month with minimal loss of activity.)

Consider `Cc1cc2cc(c1C)CNC(=O)[C@H](CCc1ccccc1)NC(=O)CCC(=O)N1CCCC(CCO2)C1` (stereo partly drawn) [Compound 95, (9S)-5^4,5^5-dimethyl-9-phenethyl-4-oxa-7,10-diaza-1(3,1)-piperidina-5(1,3)-benzenacyclotetradecaphane-8,11,14-trione], for which the IC50 in assay [1] was under 100 nM; in assay [2] it was under 100 nM; in assay [3], 500 to 1000 nM; in assay [4], 1000 to 5000 nM.

Take `COC(C(=O)N[C@H]1CC(=O)N2CCCC(CCOc3ccc(C)c(c3)CNC(=O)[C@H](CCc3ccccc3)NC1=O)C2)c1ccc(NC(C)=O)cc1` (stereo partly drawn) [Compound 323, 2-(4-acetamidophenyl)-2-methoxy-N-((9S,12S)-5^4-methyl-8,11,14-trioxo-9-phenethyl-4-oxa-7,10-diaza-1(3,1)-piperidina-5(1,3)-benzenacyclotetradecaphane-12-yl)acetamide]: the IC50 in assay [1], in assay [2], in assay [3] and in assay [4] was under 100 nM in each case.

Regarding `CC(=O)N[C@H]1CCCC(=O)NCCCCOc2ccc(C)c(c2)CNC(=O)[C@H](CCc2ccccc2)NC1=O` [Compound 269, N-((12S,15S)-1^4-methyl-8,13,16-trioxo-15-phenethyl-2-oxa-7,14,17-triaza-1(1,3)-benzenacyclooctadecaphane-12-yl)acetamide], the IC50 was 1000 to 5000 nM in assay [1], under 100 nM in assay [2], 1000 to 5000 nM in assay [3] and 1000 to 5000 nM in assay [4].

In the case of `Cc1ccc2cc1CNC(=O)[C@H](CCc1ccccc1)NC(=O)[C@@H](NC(=O)C(C)c1ccc3ncccc3c1)CC(=O)N1CCCC(CCO2)C1` (stereo partly drawn) [Compound 369, N-((9S,12S)-5^4-methyl-8,11,14-trioxo-9-phenethyl-4-oxa-7,10-diaza-1(3,1)-piperidina-5(1,3)-benzenacyclotetradecaphane-12-yl)-2-(quinolin-6-yl)propanamide], the IC50 in assay [1], in assay [2], in assay [3] and in assay [4] was under 100 nM in each case.

In the case of `Cc1ccc2cc1CNC(=O)[C@H](CCc1ccccc1)NC(=O)[C@@H](NC(=O)Cc1ccccn1)CC(=O)N1CCCC(CCO2)C1` (stereo partly drawn) [Compound 331, N-((9S,12S)-5^4-methyl-8,11,14-trioxo-9-phenethyl-4-oxa-7,10-diaza-1(3,1)-piperidina-5(1,3)-benzenacyclotetradecaphane-12-yl)-2-(pyridin-2-yl)acetamide], the IC50 in assay [1], in assay [2], in assay [3] and in assay [4] was under 100 nM in each case.

For `Cc1ccc2cc1CNC(=O)[C@H](CCc1ccccc1)NC(=O)[C@@H](NC(=O)Cc1cn3ccsc3n1)CC(=O)N1CCCC(CCO2)C1` (stereo partly drawn) [Compound 330, 2-(imidazo[2,1-b]thiazol-6-yl)-N-((9S,12S)-5^4-methyl-8,11,14-trioxo-9-phenethyl-4-oxa-7,10-diaza-1(3,1)-piperidina-5(1,3)-benzenacyclotetradecaphane-12-yl)acetamide], the IC50 in assay [1], in assay [2], in assay [3] and in assay [4] was under 100 nM in each case.

On to `Cc1ccc2cc1CNC(=O)[C@H](CCc1ccccc1)NC(=O)[C@@H](NC(=O)OCc1ccccc1)CC(=O)N1CCC(CCO2)C1` (stereo partly drawn) [Compound 325, benzyl ((9S,12S)-5^4-methyl-8,11,14-trioxo-9-phenethyl-4-oxa-7,10-diaza-1(3,1)-pyrrolidina-5(1,3)-benzenacyclotetradecaphane-12-yl)carbamate], for which the IC50 in assay [1], in assay [2], in assay [3] and in assay [4] was under 100 nM throughout.
